Data: patent US7687664B2, “Carboxylic acid derivative, a salt thereof or an ester of them, and medicament comprising it” (Eisai R&D Management Co., Ltd., priority 2001, dated 2010)

Assays:
Assay in all cases: Transcriptional activity, GAL4-PPAR LBD chimera / PLAP reporter in CV-1 cells
Format in all cases: cell-based
human PPAR α = target: T1, human PPAR α (Homo sapiens, UniProt Q07869); details: GAL4-PPARα LBD, PLAP activity 24 hours after addition
T1 construct: human PPAR 167-468 (PPAR α); expressed in transfected cells; host or cells: CV-1 (ATCC CCL-70)
T1 sequence (Q07869 167-468): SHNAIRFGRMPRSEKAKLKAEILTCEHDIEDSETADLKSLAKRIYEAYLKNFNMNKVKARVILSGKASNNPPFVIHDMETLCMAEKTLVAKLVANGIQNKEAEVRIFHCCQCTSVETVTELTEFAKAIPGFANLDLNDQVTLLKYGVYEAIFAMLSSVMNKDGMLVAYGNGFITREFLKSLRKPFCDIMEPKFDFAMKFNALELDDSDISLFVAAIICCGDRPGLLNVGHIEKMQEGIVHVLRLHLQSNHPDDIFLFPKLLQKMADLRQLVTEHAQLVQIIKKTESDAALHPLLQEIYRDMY
From the text: (§1) A GAL4-PPAR LBD chimera expression vector was constructed by ligating human PPAR 167-468 (PPAR α), 138-440 (NUC-1) and 174-475 (PPARγ) amino acid regions (LBD: Ligand Binding Domain) to a yeast transcriptional factor GAL4 1-147 amino acid region. As the reporter gene, PLAP (Placental Alkaline Phosphatase) was used, and this was ligated downstream of a TK promoter containing a 5-copy GAL4 DNA binding element to construct a vector. As host cells, CV-1 (ATCC CCL-70) was used. That is, CV-1 cells were spread at a density of 5×10^5 cells on a 35-mm dish and cultured in 10% FCS/DMEM for 24 hours, and using FuGENE 6 transfection reagent, the cells were co-transfected with the GAL4-PPAR LBD expression vector and GAL4 DBD-TK-PLAP expression vector. 24 hours after this transfection, the cells were spread again on a 96-well plate at a density of 1×10^4/well and further cultured for 24 hours. After 24 hours, the medium was exchanged with DMEM containing 10% FCS, which was previously treated at 65° C. for inactivating intrinsic alkaline phosphatase, and a test compound was added at an arbitrary concentration. The transcriptional activity was determined in terms of PLAP activity secreted 24 hours after addition of the compound, to calculate EC50.
(§2) The PLAP activity was determined after adding 50 μl assay buffer and 50 μl chemoluminescence substrate to 10 μl culture supernatant and incubating the mixture at room temperature for 1 hour. In this way, transcription activities with respect to PPARα, PPARβ(δ) and PPARγ could be determined.

[1] = target: T2, human PPAR β (NUC-1, PPARβ(δ)) (Homo sapiens, UniProt Q03181); details: GAL4-PPARβ(δ) (NUC-1) LBD, PLAP activity 24 hours after addition
T2 construct: 138-440 (NUC-1); expressed in transfected cells; host or cells: CV-1 (ATCC CCL-70)
T2 sequence (Q03181 138-440): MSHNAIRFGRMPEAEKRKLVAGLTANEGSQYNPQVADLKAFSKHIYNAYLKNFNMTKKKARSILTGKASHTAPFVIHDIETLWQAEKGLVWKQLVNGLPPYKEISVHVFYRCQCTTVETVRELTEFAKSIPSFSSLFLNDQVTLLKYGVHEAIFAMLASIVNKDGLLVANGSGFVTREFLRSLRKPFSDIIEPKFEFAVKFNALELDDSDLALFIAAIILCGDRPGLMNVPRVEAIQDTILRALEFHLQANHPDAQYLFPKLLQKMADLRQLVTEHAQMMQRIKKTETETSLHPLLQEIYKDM
From the text: as §1, §2

human PPAR γ = target: T3, human PPAR γ (Homo sapiens, UniProt P37231); details: GAL4-PPARγ LBD, PLAP activity 24 hours after addition
T3 construct: 174-475 (PPARγ); expressed in transfected cells; host or cells: CV-1 (ATCC CCL-70)
T3 sequence (P37231 174-475 isoform P37231-2): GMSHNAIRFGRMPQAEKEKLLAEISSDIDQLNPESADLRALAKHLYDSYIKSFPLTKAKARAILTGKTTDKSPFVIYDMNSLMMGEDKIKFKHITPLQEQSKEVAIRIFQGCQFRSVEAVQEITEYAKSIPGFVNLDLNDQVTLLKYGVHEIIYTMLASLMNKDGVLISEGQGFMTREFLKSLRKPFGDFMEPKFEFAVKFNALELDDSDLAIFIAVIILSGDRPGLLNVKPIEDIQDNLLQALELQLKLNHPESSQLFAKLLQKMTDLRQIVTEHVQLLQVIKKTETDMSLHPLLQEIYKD
From the text: as §1, §2

| Compound | EC50 (human PPAR α) | EC50 [1] | EC50 (human PPAR γ) |
| --- | --- | --- | --- |
| COc1ccc(-c2cccc(CC(=O)O)c2)cc1OCC#Cc1cccc(C(F)(F)F)c1 [Ex 375, {3′-[3-(3-Trifluoromethylphenyl)-2-propynyloxy]-4′-methoxybiphenyl-3-yl}acetic Acid] | 653 nM | 102 nM | 1280 nM |
| Cc1ccc(-c2ccccc2CNC(=O)c2sc(-c3ccc(Cl)cc3)nc2C)cc1C(=O)O [Example 257, 3-(2-[([2-(4-Chlorophenyl)-4-methyl-1,3-thiazol-5-yl]carbonylamino)methyl]phenyl)-6-methylbenzoic Acid] | 29 nM |  |  |
| COc1ccc(-c2cccc(CC(=O)O)c2)cc1CCOc1ccc(Cl)cc1Cl [Example 263, 3-{3-[2-(2,4-Dichlorophenoxy)ethyl]-4-methoxyphenyl}phenylacetic Acid] |  | 0.48 nM | 1160 nM |
| CCOc1ccc(-c2cccc(CC(=O)O)c2)cc1CNC(=O)OCc1ccc(CC)cc1 [Example 302, {4′-Ethoxy-3′-[(4-ethylbenzyloxycarbonylamino)methyl]-biphenyl-3-yl}acetic Acid] | 3 nM | 74 nM | 700 nM |
| COc1ccc(-c2cccc(CC(=O)O)c2)cc1C#CCOc1ccc(C(F)(F)F)cc1 [Example 351, {4′-Methoxy-3′-[3-(4-trifluoromethylphenoxy)1-propynyl]biphenyl-3-yl}acetic Acid] | 1820 nM | 160 nM | 1410 nM |

Results, then the compound that gave them:

| EC50 (human PPAR α) | EC50 [1] | EC50 (human PPAR γ) | Compound |
| --- | --- | --- | --- |
| 1560 nM | 1140 nM | 150 nM | COc1ccc(-c2cccc(CC(=O)O)c2)cc1OCC(O)COc1ccc(C(C)(C)C)cc1 (stereo not shown) [Ex 365, {3′-[2-Hydroxy-3-(4-t-butylphenoxy)propoxy]-4′-methoxybiphenyl-3-yl}acetic Acid] |
| 45 nM | 116 nM | 43 nM | COc1ccc(-c2ccc(C)c(C(=O)O)c2)cc1CNC(=O)c1ccc(Cl)cc1Cl [Example 21, 3-(3-{[(2,4-Dichlorobenzoyl)amino]methyl}-4-methoxyphenyl)-6-methylbenzoic Acid] |
|  |  | 31 nM | CCCOc1ccc(C(=O)NCc2cc(-c3cccc(/C=C(\CC)C(=O)O)c3)ccc2OC)c(Cl)c1 [Example 141, (E)-2-Ethyl-3-[3-(3-{[(4-propoxy-2-chlorobenzoyl)amino]methyl}-4-methoxyphenyl)phenyl]-2-propenoic Acid] |
| 538 nM | 0.35 nM | 136 nM | CCCOc1ccc(-c2cc(C(=O)O)ccc2Cl)cc1CNC(=O)c1ccc(C(F)(F)F)cc1F [Example 199, 3-(3-{[(4-Trifluoromethyl-2-fluorobenzoyl)amino]methyl}-4-propoxyphenyl)-4-chlorobenzoic Acid] |
| 750 nM | 0.5 nM | 58 nM | COc1ccc(-c2cccc(CC(=O)O)c2)cc1CNC(=O)c1ccc(C(F)(F)F)cc1F [Example 220, 3-(3-{[(4-Trifluoromethyl-2-fluorobenzoyl)amino]methyl}-4-methoxyphenyl)-3-phenylacetic Acid] |
| 622 nM | 18 nM | 468 nM | COc1ccc(-c2cccc(CC(=O)O)c2)cc1CCOC(=O)Nc1ccc(C(F)(F)F)cc1 [Example 267, 2-[5-(3-{2-[(4-Trifluoromethylanilinocarbonyl)oxy]ethyl}-4-methoxyphenyl)-3-phenyl]acetic Acid] |
| 719 nM | < 0.1 nM | 654 nM | COc1ccc(-c2cccc(CC(=O)O)c2)cc1/C(C)=N/OCc1ccc(C(F)(F)F)cc1 [Example 361, {4′-Methoxy-3′-[1-(4-trifluoromethylbenzyloxyimino)ethyl]-biphenyl-3-yl}acetic Acid] |
